Laboratory results as given in US20200000825A1, “METHODS AND COMPOSITIONS FOR TREATING AND PREVENTING VIRAL INFECTIONS” (ENTERIN LABORATORIES, INC., priority 2009, published 2020).
Like-named read-outs stand apart in the source and are kept apart here.

Key:
[1] = system: HUVECs; assay: Thrombin induced stress fiber formation in endothelial cells; assay type: cell-based, human; conditions: aminosterol 20 μM, thrombin 20 ng/ml, 2 hours
Procedure: The basic methods have been published (Williams, […] et al. 2001). HUVECs were grown on fibronectin-covered coverslips in EGM medium. […] Following a rinse, the cells were exposed to a 1:400 dilution of an FITC-goat antimurine antibody and 250 ng/ml TRITC phalloidin. The stained coverslips were visualized by fluorescence microscopy.

[2] = system: Yellow Fever; assay type: in vivo, Syrian hamsters; conditions: squalamine 15 mg/kg/d s.c. qd, -24 h to 6 dpi
[3] = system: Yellow Fever; assay type: in vivo, Syrian hamsters
[4] = system: murine cytomegalovirus (MCMV); assay type: in vivo, Balb/c mice
[5] = system: Eastern Equine Encephalitis Virus; assay type: in vivo, hamsters (Syrian golden); conditions: 10 mg/kg/day s.c.
[6] = system: Eastern Equine Encephalitis Virus; assay type: in vivo
[7] = system: Dengue virus; assay: Dengue infection of HMEC-1 cells, immunohistochemical detection of viral E protein (Example 11); assay type: cell-based, human
Procedure: Cells were grown on uncoated glass cover-slips following a published protocol (Zamudio-Meza, Castillo-Alvarez et al. 2009). The cells were pretreated with squalamine for 2 hr at 37° C. prior to viral exposure; virus (multiplicity of infection of 3) remained in contact with cells for 30 minutes at 4° C., followed by 90 minutes at 37° C. The medium was then replaced with fresh medium lacking virus and squalamine and maintained at 37° C. for 48 hrs. Cells were fixed and processed for immunohistochemical detection of viral E protein. Viral E protein expression was used to monitor the early stages of infection.

[8] = system: human Hepatitis B virus; assay: Hepatitis B virus replication in primary human hepatocytes, PCR (Example 12); assay type: cell-based
Procedure: Primary human hepatocytes were established in a 96 well microtiter plate. Squalamine was then added at concentrations of 2, 6 or 20 μg/ml followed by an inoculum of Hep B virus, and then in culture for 16 hours, after which fresh medium was introduced, and the cells maintained in culture for 14 days. In a second experiment, squalamine at 6 or 20 μg/ml was added to the cells at 24 hours post inoculation for a 16 hour exposure, followed by removal of medium, replacement with fresh medium, and continued culture for 14 days. Viral growth was measured by PCR using viral specific primers and normalized to the total RNA extracted from each corresponding well.

[9] = system: human Hepatitis Delta virus; assay: Hepatitis Delta virus replication in primary human hepatocytes, PCR (Example 13); assay type: cell-based
Procedure: Primary human hepatocytes were established in a 96 well microtiter plate. Squalamine was then added at concentrations of 20 or 60 μg/ml followed by an inoculum of Hep D virus, and then in culture for 3 hours, after which fresh medium was introduced, and the cells maintained in culture for 7 days. Viral growth was measured by PCR using viral specific primers and normalized to the total RNA extracted from each corresponding well.

[10] = system: human immunodeficiency virus (HIV)
[11] = system: RAW264.7 cell line; conditions: squalamine 80 μM, 30 minutes; cited from earlier work
[12] = cited from earlier work
[13] = cited from earlier work; remark: listed apart in the source
[14] = system: Human umbilical endothelial cells; assay: Kinetics of uptake of 3H-labelled aminosterol into endothelial cells; conditions: for Uptake into endothelial cells: 1 μg/ml 3H-aminosterol
[15] = mouse, in vivo, ip, 10 mg/kg/day
[16] = 20 μg/ml, added during initial stages of infection
[17] = 500 mg/m(2)/day, 5-day continuous i.v. infusion

SMILES: CC(C)[C@@H](CC[C@@H](C)[C@H]1CC[C@H]2[C@@H]3[C@H](O)C[C@H]4C[C@@H](NCCCNCCCCN)CC[C@]4(C)[C@H]3CC[C@]12C)OS(=O)(=O)O [Squalamine, squalamine]
- Disruption of thrombin induced stress fiber formation [1]: Yes
- Disruption of thrombin induced stress fiber formation ([1]; listed as squalamine): disrupt thrombin induced stress fiber formation
- Survival [2]: 70%
- Animals cured (survival through day 21) ([3]; squalamine 15 mg/kg/day s.c. from 1 dpi to 8 dpi): 60%
- Animals cured (survival through day 21) ([3]; squalamine 30 mg/kg/day s.c. from 1 dpi to 8 dpi): 60%
- Animals cured (survival through day 21) ([3]; squalamine 30 mg/kg/day s.c. from 2 dpi to 9 dpi): 40%
- Viral titers in lung versus control ([4]; 10 mg/kg/day i.p.): trend toward reduction
- Viral titers versus control cohort ([4]; day 7, spleen and liver, 10 mg/kg/day s.c. and i.p. groups): significantly lower
- Viral titers, difference between groups ([4]; days 3 to 7, lungs and salivary glands): no significant differences
- Effect on viral growth [4, 15]: little effect
- Reduction in viral growth [4, 15]: greater than 10 fold
- Virus in liver and spleen [4, 15]: undetectable
- Virus in liver and spleen versus controls ([4]; mouse, in vivo, sc, 10 mg/kg/day): significantly reduced
- Hamsters still alive at the end of treatment ([5]; -24 h to 6 days after infection): 6/10
- Plasma concentration of virus, lower than vehicle ([5]; first 3 days post infection): about 100 fold
- Efficacy in mice [6]: ineffective
- Inhibition of viral infection ([7]; 46 ug/ml): about 80%
- Inhibition of viral infection ([7]; 60 μg/ml and higher): ~100%
- Inhibition of viral infection ([7]; 62 ug/ml): 100%
- Cell viability (morphology, phase contrast) ([7]; HMEC-1 cells at the effective squalamine concentrations): not diminished
- Inhibition of viral infection ([7]; about 40 μg/ml): 80%
- Inhibition of viral infection ([7]; concentrations above 40 ug/ml): almost completely inhibited
- Inhibition of viral production ([8]; 2 μg/ml, added at the outset of infection): 14%
- Inhibition of viral production ([8]; 6 μg/ml, added at 24 hours): 30%
- Inhibition of viral production ([8]; 6 μg/ml, added at the onset of infection): 54%
- Inhibition of viral production ([8]; 20 μg/ml, added at 24 hours): 64%
- Inhibition of viral production [8, 16]: 83%
- Inhibition of viral production [9, 16]: 90%
- Cytotoxicity in vitro ([9]; 60 μg/ml, primary human hepatocytes): cytotoxic
- Inhibition of HIV infection [10]: about 50%
- Toxicity towards the HeLa cells ([10]; 30 μg/ml): no evidence of toxicity
- Localization of Lact-C2 probe [11]: did not alter the localization
- Localization of R-pre probe [11]: displaced from its residence on the plasma membrane
- Mean clearance [12, 17]: 2.67 liters/h/m(2)
- Mean half-life [12, 17]: 9.46 h
- Mean volume of distribution [12, 17]: 36.84 liters/m(2)
- Steady-state concentrations [12, 17]: 20.08 micro g/ml
- Patients with dose-limiting grade 4 hyperbilirubinemia and grade 3 neurosensory changes ([12]; 500 mg/m(2)/day): one of seven
- Tolerability ([12]; 500 mg/m(2)/day): well tolerated
- Patients who developed grade 4 hyperbilirubinemia ([12]; 700 mg/m(2)/day): two of three
- Dose dependence of pharmacokinetics ([12]; 6 to 700 mg/m(2)/day): dose-proportional
- Patients with dose-limiting toxicity (grade 3/4 arthralgia, myalgia, neutropenia) ([13]; 400 mg/m(2)/day with paclitaxel and carboplatin): two of three
- Tolerability of the combination ([13]; continuous daily for 5 days, with paclitaxel and carboplatin on day 1): well tolerated
- Uptake into endothelial cells ([14]; 5 min): 250 Molecules/cell (×10^−6)
- Uptake into endothelial cells ([14]; 30 min): 400 Molecules/cell (×10^−6)
- Uptake into endothelial cells ([14]; 60 min): 500 Molecules/cell (×10^−6)
- Uptake into endothelial cells ([14]; 120 min): 500 Molecules/cell (×10^−6)
- Uptake into endothelial cells ([14]; 180 min): 600 Molecules/cell (×10^−6)
- Entry into the HUVEC relative to Aminosterol 1436 ([14]; squalamine versus Aminosterol 1436): over 2 orders of magnitude
